The structures appear in SMILES notation.

Jak2 (human Jak2 kinase domain, amino acids 808-1132), sequence (O60674 808-1132): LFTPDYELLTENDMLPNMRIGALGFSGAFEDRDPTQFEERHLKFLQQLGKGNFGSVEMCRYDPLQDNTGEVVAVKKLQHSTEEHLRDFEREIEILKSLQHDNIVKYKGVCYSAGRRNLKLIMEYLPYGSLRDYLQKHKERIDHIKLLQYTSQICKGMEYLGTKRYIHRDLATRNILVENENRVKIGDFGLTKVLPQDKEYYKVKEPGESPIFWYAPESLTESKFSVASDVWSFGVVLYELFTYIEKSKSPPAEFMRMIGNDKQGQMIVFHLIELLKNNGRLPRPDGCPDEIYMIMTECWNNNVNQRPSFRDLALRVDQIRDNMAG

The test addresses Jak2 (human Jak2 kinase domain, amino acids 808-1132) (Homo sapiens (Human), UniProt O60674). As to the kind of experiment: Jak2 inhibition assay (Omnia kinase assay). It counts as biochemical. To be noted: read-out: Jak2 Enzyme (% inhibition at 1000 nM), Table 1; 1000 nM test compound. As to the method:
The assays described in Examples C, D, E and F for the determination of JAK1, JAK2, JAK3 and Tyk2 kinase activity, respectively, utilized the Omnia® Kinase fluorescence peptide substrate-based technology (Invitrogen). […] The reactions were therefore read at excitation 360 nm and emission was measured at 485 nm every 50 seconds for 45 minutes using a PerkinElmer EnVision Multilabel Plate Reader.
The final buffer conditions for each of the JAK1, JAK2, JAK3 and Tyk2 assays were as follows: 25 mM HEPES, pH 7.4, 10 mM MgCl2, 0.01% Triton X-100 and 1 mM DTT.
Two-μL aliquots of these were transferred to a fresh plate for a ten-fold intermediate dilution with assay buffer. Five-μL aliquots of the diluted compounds were then transferred to 20-μL of assay mixtures described in Examples C, D, E and F for a final concentration of DMSO of 2%. […] For each plate, percent of control (POC) values were calculated for each well according to the following equation:
where Xmax=Average Uninhibited Controls • Xmin=Average Background IC50's were estimated from the POC's using a standard 4-parameter logistic model:
where A=Minimum Y (Bottom Asymptote) • B=Maximum Y (Top Asymptote) • C=EC50 • D=Slope Factor • X=Compound Concentration (nM) • Y=POC
The IC50 is defined as the concentration of inhibitor at which the POC equals 50 for the fitted curve.
Compounds of Formula I were screened for their ability to inhibit Jak2 using the general enzyme inhibition assay method, in which the assay mixture contained 500 μM ATP, 10 μM Omnia® Y7 peptide (Catalog # IVGN KNZ3071C, Invitrogen Corporation, Carlsbad, Calif.) and 4 nM Jak2 in a total volume of 20 μL. Human Jak2 kinase domain comprising amino acids 808-1132 was purchased from Invitrogen Corporation, Carlsbad, Calif. (catalog # IVGN PV4210).
For orientation: inhibition means the relative decrease from the control value, in per cent. Take `Cc1ccc(CNC(=O)c2cnn3ccc(N4CCC[C@@H]4c4cc(F)ccc4F)nc23)o1` [Example 5, (R)-5-(2-(2,5-difluorophenyl)pyrrolidin-1-yl)-N-((5-methylfuran-2-yl)methyl)pyrazolo[1,5-a]pyrimidine-3-carboxamide]: the inhibition at 1 µM was found to be 14.2%. Regarding `C[C@H](NC(=O)c1cnn2ccc(N3[C@H](CO)CC[C@@H]3c3cncc(F)c3)nc12)C(F)(F)F` [Example 213, 5-((2R,5S)-2-(5-fluoropyridin-3-yl)-5-(hydroxymethyl)pyrrolidin-1-yl)-N—((S)-1,1,1-trifluoropropan-2-yl)pyrazolo[1,5-a]pyrimidine-3-carboxamide], the inhibition at 1 µM came to 21.9%. The same measure for `O=C(NC1CCOCC1)c1cnn2ccc(N3CCC[C@@H]3c3cncc(F)c3)nc12` [Example 72, (R)-5-(2-(5-fluoropyridin-3-yl)pyrrolidin-1-yl)-N-(tetrahydro-2H-pyran-4-yl)pyrazolo[1,5-a]pyrimidine-3-carboxamide]: 11.7%. For `CC1(C)CC[C@H](c2cc(F)ccc2F)N1c1ccn2ncc(C(=O)NC3CC3)c2n1` [Example 68, (R)—N-cyclopropyl-5-(5-(2,5-difluorophenyl)-2,2-dimethylpyrrolidin-1-yl)pyrazolo[1,5-a]pyrimidine-3-carboxamide], the inhibition at 1 µM worked out at 23%. The same measure for `COc1ncc(F)cc1[C@H]1CCCN1c1ccn2ncc(C(=O)NC[C@H](C)O)c2n1` [Example 156, 5-((R)-2-(5-fluoro-2-methoxypyridin-3-y1)pyrrolidin-1-yl)-N-((S)-2-hydroxypropyl)pyrazolo[1,5-a]pyrimidine-3-carboxamide]: 16.1%. The value for `Cn1cc(F)cc([C@H]2CCCN2c2ccn3ncc(C(=O)N[C@H](CO)C(C)(C)C)c3n2)c1=O` [Example 233, 5-((R)-2-(5-fluoro-1-methyl-2-oxo-1,2-dihydropyridin-3-yl)pyrrolidin-1-yl)-N-((S)-1-hydroxy-3,3-dimethylbutan-2-yl)pyrazolo[1,5-a]pyrimidine-3-carboxamide] was 6.7%; that for `O=C(NC1CCC1)c1cnn2ccc(N3CCC[C@@H]3c3cncc(F)c3)nc12` [Example 101, (R)-N-cyclobutyl-5-(2-(5-fluoropyridin-3-yl)pyrrolidin-1-yl)pyrazolo[1,5-a]pyrimidine-3-carboxamide] was 26.2%. The value for `CNC(=O)c1cnn2ccc(N3CCC[C@@H]3c3cc(F)cnc3C)nc12` [Example 186, (R)-5-(2-(5-fluoro-2-methylpyridin-3-yl)pyrrolidin-1-yl)-N-methylpyrazolo[1,5-a]pyrimidine-3-carboxamide] was 10.5%. For `NC(=O)c1cnn2ccc(N3CCC[C@@H]3c3cncc(F)c3)nc12` [Example 117, (R)-5-(2-(5-fluoropyridin-3-yl)pyrrolidin-1-yl)pyrazolo[1,5-a]pyrimidine-3-carboxamide], the inhibition at 1 µM is -1.4%.

With `C[C@H](O)[C@H](CO)NC(=O)c1cnn2ccc(N3CCC[C@@H]3c3cc(F)ccc3F)nc12` [Example 175, 5-((R)-2-(2,5-difluorophenyl)pyrrolidin-1-yl)-N-((2S,3S)-1,3-dihydroxybutan-2-yl)pyrazolo[1,5-a]pyrimidine-3-carboxamide], the inhibition at 1 µM was 3.8%. The value for `O=C(NCCN1CCC(O)CC1)c1cnn2ccc(N3CCC[C@@H]3c3cc(F)ccc3F)nc12` [Example 170, 5-((R)-2-(2,5-difluorophenyl)pyrrolidin-1-yl)-N-(2-(4-hydroxypiperidin-1-yl)ethyl)pyrazolo[1,5-a]pyrimidine-3-carboxamide] was 0.7%; that for `COc1ncc(F)cc1[C@H]1CCCN1c1ccn2ncc(C(=O)NC(C)(C)C)c2n1` [Example 80, (R)—N-tert-butyl-5-(2-(5-fluoro-2-methoxypyridin-3-yl)pyrrolidin-1-yl)pyrazolo[1,5-a]pyrimidine-3-carboxamide] was 50.7%; that for `COc1ncc(F)cc1[C@H]1CCCN1c1ccn2ncc(C(=O)NC3CC3)c2n1` [Example 79, (R)—N-cyclopropyl-5-(2-(5-fluoro-2-methoxypyridin-3-yl)pyrrolidin-1-yl)pyrazolo[1,5-a]pyrimidine-3-carboxamide] was 54.8%. Take `O=C(NC1CCC[C@@H]1O)c1cnn2ccc(N3CCCC3c3cncc(F)c3)nc12` (stereo partly drawn) [Example 120, 5-((R)-2-(5-fluoropyridin-3-yl)pyrrolidin-1-yl)-N-((trans)-2-hydroxycyclopentyl)pyrazolo[1,5-a]pyrimidine-3-carboxamide]: the inhibition at 1 µM stood at 2.3%. The same measure for `O=C(NC[C@H](O)CO)c1cnn2ccc(N3CCC[C@@H]3c3cc(F)ccc3F)nc12` [Example 29, 5-((R)-2-(2,5-difluorophenyl)pyrrolidin-1-yl)-N—((S)-2,3-dihydroxypropyl)pyrazolo[1,5-a]pyrimidine-3-carboxamide]: 13.2%; for `O=C(c1cnn2ccc(N3CCC[C@@H]3c3cncc(F)c3)nc12)N1CCCC1` [Example 94, (R)-(5-(2-(5-fluoropyridin-3-yl)pyrrolidin-1-yl)pyrazolo[1,5-a]pyrimidin-3-yl)(pyrrolidin-1-yl)methanone]: 4.4%.

Consider `C[C@@H](O)CNC(=O)c1cnn2ccc(N3CCCC3c3cc(F)ccc3F)nc12` (stereo in doubt) [Example 167, 5-((R)-2-(2,5-difluorophenyl)pyrrolidin-1-yl)-N-(2-hydroxypropyl)pyrazolo[1,5-a]pyrimidine-3-carboxamide], for which the inhibition at 1 µM came to 9.8%. The same measure for `Cc1cccnc1NC(=O)c1cnn2ccc(N3CCC[C@@H]3c3cc(F)ccc3F)nc12` [Example 3, (R)-5-(2-(2,5-difluorophenyl)pyrrolidin-1-yl)-N-(3-methylpyridin-2-yl)pyrazolo[1,5-a]pyrimidine-3-carboxamide]: 10.1%; for `CC(C)(CF)NC(=O)c1cnn2ccc(N3CCC[C@@H]3c3cc(F)ccc3F)nc12` [Example 40, (R)-5-(2-(2,5-difluorophenyl)pyrrolidin-1-yl)-N-(1-fluoro-2-methylpropan-2-yl)pyrazolo[1,5-a]pyrimidine-3-carboxamide]: 41.4%. The same measure for `COc1ccc(F)cc1[C@H]1CCCN1c1ccn2ncc(C(=O)N[C@H]3CC[C@H](O)CC3)c2n1` [Example 34, 5-((R)-2-(5-fluoro-2-methoxyphenyl)pyrrolidin-1-yl)-N-((trans)-4-hydroxycyclohexyl)pyrazolo[1,5-a]pyrimidine-3-carboxamide]: 96.9%; for `C[C@H](O)CNC(=O)c1cnn2ccc(N3CCC[C@@H]3c3cncc(F)c3)nc12` [Example 109, 5-((R)-2-(5-fluoropyridin-3-yl)pyrrolidin-1-yl)-N-((S)-2-hydroxypropyl)pyrazolo[1,5-a]pyrimidine-3-carboxamide]: -0.3%; for `CC(C)(O)CNC(=O)c1cnn2ccc(N3CCC[C@@H]3c3cc(F)ccc3F)nc12` [Example 17, (R)-5-(2-(2,5-difluorophenyl)pyrrolidin-1-yl)-N-(2-hydroxy-2-methylpropyl)pyrazolo[1,5-a]pyrimidine-3-carboxamide]: 5.6%. The value for `O=C(c1cnn2ccc(N3CCC[C@@H]3c3cncc(F)c3)nc12)N1CC(CO)C1` [Example 127, (R)-(5-(2-(5-fluoropyridin-3-yl)pyrrolidin-1-yl)pyrazolo[1,5-a]pyrimidin-3-yl)(3-(hydroxymethyl)azetidin-1-yl)methanone] was 0.2%; that for `COCCOc1ccc(F)cc1[C@H]1CCCN1c1ccn2ncc(C(N)=O)c2n1` [Example 89, (R)-5-(2-(5-fluoro-2-(2-methoxyethoxy)phenyl)pyrrolidin-1-yl)pyrazolo[1,5-a]pyrimidine-3-carboxamide] was 33.1%; that for `COc1ncc(F)cc1[C@H]1CCCN1c1ccn2ncc(C(=O)NC3CCN(CCO)CC3)c2n1` [Example 159, (R)-5-(2-(5-fluoro-2-methoxypyridin-3-yl)pyrrolidin-1-yl)-N-(1-(2-hydroxyethyl)piperidin-4-yl)pyrazolo[1,5-a]pyrimidine-3-carboxamide] was 28.9%. Turning to `CC(NC(=O)c1cnn2ccc(N3CCCC3c3cncc(F)c3)nc12)C1CC1` [Example 113, N-(1-cyclopropylethyl)-5-((R)-2-(5-fluoropyridin-3-yl)pyrrolidin-1-yl)pyrazolo[1,5-a]pyrimidine-3-carboxamide], the inhibition at 1 µM amounted to 44.6%. The value for `Cn1cc(CNC(=O)c2cnn3ccc(N4CCC[C@@H]4c4cc(F)ccc4F)nc23)cn1` [Example 22, (R)-5-(2-(2,5-difluorophenyl)pyrrolidin-1-yl)-N-((1-methyl-1H-pyrazol-4-yl)methyl)pyrazolo[1,5-a]pyrimidine-3-carboxamide] was 9.8%.

Values taken from US10251889B2, “Substituted pyrazolo[1,5-a]pyrimidine compounds as Trk kinase inhibitors” (Array BioPharma, Inc., priority 2009, dated 2019).
